# Measured values reported in patent US20230192878A1, “METHODS, THERAPIES AND USES FOR TREATING CANCER” (PFIZER INC., priority 2020, published 2023).
# What was measured:
# MM.1S = assay: Soluble BCMA (sBCMA) shedding after GSI (ELISA); type: cell-based, Human; design: unit not given here; conditions: Table 6 (sBCMA in supernatant, ELISA), 24 hours
# Raji = assay: Cell surface BCMA expression after GSI, concentration series, lymphoma cells; type: cell-based; conditions: 24 hours, ± SD
# Method: Lymphoma cells (Raji cell line) were seeded in a 96-well U bottom plate at 40,000 cells/well. Cells were incubated for 24 hours in the presence of GSI diluted in RPMI medium (0.1% DMSO). The following concentrations of the GSI were tested: 1000 nM, 500 nM, 100 nM, 50 nM, 25 nM, 10 nM, 5 nM, 2.5 nM, 1 nM, 0.1 nM, 0.01 nM. 24 hours later cells were collected and washed with PBS+2% FBS, followed by staining with ZombieNIR Viability Dye (Biolegend) at 1 in 500 dilution in PBS at room temperature for 20 minutes. Next, cells were washed with PBS+2% FBS and stained with anti-BCMA PE-labelled antibody (Biolegend) diluted in PBS+2% FBS for 30 minutes at 4° C. Cells were acquired on BD Flow Cytometer and analyzed using FlowJo flow cytometry analysis software. Dead cells were removed from the analysis by gating on ZombieNIR negative population. BCMA MFI was plotted against GSI concentration to establish EC50.
# [1] = test system: advanced multiple myeloma; assay: First in human Phase 1 clinical study: patient response per IMWG; type: in vivo
# From the text: This Example illustrates an ongoing Phase 1 open-label, multicenter clinical study of PF-06863135 (BCMAxCD3 bispecific) as monotherapy and in combination with sasanlimab, lenalidomide or pomalidomide, in adult patients with advanced multiple myeloma who have relapsed from or are refractory to standard therapy. The study has been registered on ClinicalTrials.gov with identifier NCT03269136 and was first posted August 2017. Study results for Part 1 of the trial and additional arms for the study are described in this Example.
# Part 1 of the Study is the […] single agent dose escalation arm at the dose levels of 0.1, 0.3, 1, 3, 10, 30, and 50 μg/kg Q1W by intravenous (IV) administration, and at the dose levels of 80, 130, 215, 360, 600 and 1000 μg/kg Q1W by subcutaneous (SC) administration. Upon reaching maximum tolerated dose (MTD)/maximum administered dose (MAD), patients can be treated at a dose level selected from the foregoing dose levels described in this paragraph, and below the MTD/MAD fora Q2W administration, both IV and SC, to further support the recommended phase 2 dose (RP2D) decision. For the study, dose limiting toxicity observation period is set at 21 days for Q1W dosing and 28 days for Q2W dosing. The treatment cycle, aka cycle, for Q1W dosing would be 3 weeks, and for Q2W dosing would be four weeks.
# Clinical Outcome of Part 1 of the Study. As of 15 Apr. 2020, a total of 23 patients were enrolled in Part 1 of the study and had been treated with PF-06863135 administered intravenously (IV) at 0.1 (N=2), 0.3 (N=3), 1 (N=2), 3 (N=3), 10 (N=2), 30 (N=5), and 50 (N=6) μg/kg. As of Aug. 21, 2020, a total of 30 patients were enrolled in Part 1 of the study and had been treated with PF-06863135 administered subcutaneously (SC) at 80 (N=6), 130 (N=4), 215 (N=4), 360 (N=4), 600 (N=6) and 1000 (N=6) μg/kg. Safety and efficacy data were available for in 23 IV and 30 SC treated patients per IMWG (International Myeloma Working Group) criteria.
# Part 1.1 of the Study is an alternative maintenance dose escalation arm for single agent PF-06863135. If excessive toxicity occurs or the maximum tolerated dose (MTD)/maximum administered dose (MAD) is reached at a dose level that is earlier than desired in Part 1 of the study described above, a priming dose will be administered one week prior to the day 1 cycle 1 administration of the dose (maintenance dose) at this dose level and for all subsequent dose levels in the dose escalation that may be initiated for Part 1.1. The priming dosing will be at a lower dose level than the maintenance dose.
# [2] = 600 μg/kg priming, 1000 μg/kg Q1W SC, N = 7
# [3] = 600 μg/kg priming, 1000 μg/kg Q2W SC, N = 13
molecule,measurement,setting,value
"CCC[C@H](N[C@H]1CCc2cc(F)cc(F)c2C1)C(=O)Nc1cn(C(C)(C)CNCC(C)(C)C)cn1 [GSI, nirogacestat]",BCMA (-PE) MFI,MM.1S; GSI 0.01 nM,3794.2
same,BCMA (-PE) MFI,MM.1S; GSI 0.1 nM,5797.5
same,BCMA (-PE) MFI,MM.1S; GSI 1 nM,5143.1
same,BCMA (-PE) MFI,MM.1S; GSI 2.5 nM,3988.3
same,BCMA (-PE) MFI,MM.1S; GSI 5 nM,2453.6
same,BCMA (-PE) MFI,MM.1S; GSI 10 nM,1661.5
same,BCMA (-PE) MFI,MM.1S; GSI 25 nM,630.5
same,BCMA (-PE) MFI,MM.1S; GSI 50 nM,279.9
same,BCMA (-PE) MFI,MM.1S; GSI 100 nM,21.3
same,BCMA (-PE) MFI,MM.1S; GSI 500 nM,151.8
same,BCMA (-PE) MFI,MM.1S; GSI 1000 nM,350
same,BCMA MFI,Raji; GSI 0.01 nM,142.5 ± 0.8
same,BCMA MFI,Raji; GSI 0.10 nM,147.5 ± 20.6
same,BCMA MFI,Raji; GSI 1.00 nM,398 ± 34
same,BCMA MFI,Raji; GSI 2.50 nM,469 ± 31.2
same,BCMA MFI,Raji; GSI 5.00 nM,484 ± 43.9
same,BCMA MFI,Raji; GSI 10.00 nM,515.5 ± 47.4
same,BCMA MFI,Raji; GSI 25.00 nM,532 ± 42.5
same,BCMA MFI,Raji; GSI 50.00 nM,535 ± 65.1
same,BCMA MFI,Raji; GSI 100.00 nM,498.5 ± 20.6
same,BCMA MFI,Raji; GSI 500.00 nM,568.5 ± 50.3
same,BCMA MFI,Raji; GSI 1000.00 nM,534.5 ± 67.2
PF-06863135: heterodimeric humanized full-length bispecific antibody with one BCMA binding arm and one CD3 binding arm,Patients who achieved a complete response,[1]; 50 μg/kg IV,1 patient
same,Patient Response: PR (patients),"[1]; 215 μg/kg SC, N = 4",1
same,Patient Response: SD (patients),"[1]; 215 μg/kg SC, N = 4",1
same,Patient Response: sCR (patients),"[1]; 215 μg/kg SC, N = 4",2
same,Patient Response: PD (patients),"[1]; 360 μg/kg SC, N = 4",1
same,Patient Response: VGPR (patients),"[1]; 360 μg/kg SC, N = 4",2
same,Patient Response: sCR (patients),"[1]; 360 μg/kg SC, N = 4",1
same,Patient Response: PD (patients),"[1]; 600 μg/kg SC, N = 6",1
same,Patient Response: SD (patients),"[1]; 600 μg/kg SC, N = 6",1
same,Patient Response: VGPR (patients),"[1]; 600 μg/kg SC, N = 6",2
same,Patient Response: sCR (patients),"[1]; 600 μg/kg SC, N = 6",2
same,Patient Response: CR (patients),[1]; [2],2
same,Patient Response: PR (patients),[1]; [2],1
same,Patient Response: VGPR (patients),[1]; [2],1
same,Patient Response: PD (patients),[1]; [3],3
same,Patient Response: PR (patients),[1]; [3],3
same,Patient Response: SD (patients),[1]; [3],1
same,Patient Response: VGPR (patients),[1]; [3],4
same,Patient Response: CR (patients),"[1]; 1000 μg/kg SC, N = 6",1
same,Patient Response: PD (patients),"[1]; 1000 μg/kg SC, N = 6",1
same,Patient Response: PR (patients),"[1]; 1000 μg/kg SC, N = 6",1
same,Patient Response: VGPR (patients),"[1]; 1000 μg/kg SC, N = 6",3
same,Subjects who achieved best response of stable disease,[1]; IV cohorts (0.3-50 μg/kg),Ten
same,Patients who achieved a minimal response,"[1]; IV cohorts, at 3 μg/kg and 50 μg/kg IV",2 patients
same,Clinical efficacy,[1]; highest dose levels of 600 and 1000 μg/kg SC,clinical efficacy was seen in most patients
